According to PMC12467512, “Pharmacological Characterization of the Novel CRF1 Receptor Antagonist, Thiazolo[4,5-d] Pyrimidine Analog, M43” (Biomolecules, 2025):

Target: T1, CRF1R (type 1 receptor for the corticotropin-releasing factor) (Homo sapiens, UniProt P34998)
T1 construct: gene CRHR1
T1 sequence (P34998 24-415): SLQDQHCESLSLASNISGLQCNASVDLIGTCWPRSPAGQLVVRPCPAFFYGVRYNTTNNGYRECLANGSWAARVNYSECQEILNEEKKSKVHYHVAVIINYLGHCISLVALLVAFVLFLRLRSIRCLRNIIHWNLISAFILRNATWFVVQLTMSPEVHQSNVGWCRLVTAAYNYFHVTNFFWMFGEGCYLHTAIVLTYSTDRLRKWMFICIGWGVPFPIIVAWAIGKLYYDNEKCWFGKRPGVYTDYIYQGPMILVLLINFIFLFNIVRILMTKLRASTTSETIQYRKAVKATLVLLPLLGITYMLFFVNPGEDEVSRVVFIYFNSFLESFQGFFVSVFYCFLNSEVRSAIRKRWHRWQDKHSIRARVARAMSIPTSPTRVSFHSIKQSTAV
Experiment: inhibition of cAMP accumulation stimulated by […] Tyr0-sauvagine in HEK […] cells stably expressing human CRF1R; also […] shift of agonist potency at […] M43
Assay type: cell-based

CCCCN(CC)c1nc(C)nc2c1s/c(=N\O)n2-c1c(Cl)cc(Cl)cc1Cl [M43]
IC50: 43.5 nM
